“Also recorded” adds a separate entry of the source. Marks after values point to notes of the source that are not given here.
Assays:
hMAO-B = biological target: T1, hMAO-B (Homo sapiens, UniProt P27338); assay: MAO-B inhibition assay (in vitro fluorometric Amplex Red method); type: biochemical; conditions: for inhibition at 1000 µM: 10^−3 M; for inhibition at 100 µM: 10^−4 M
T1 construct: purchased Sigma-Aldrich (Steinheim, Germany)
T1 sequence (P27338 1-520): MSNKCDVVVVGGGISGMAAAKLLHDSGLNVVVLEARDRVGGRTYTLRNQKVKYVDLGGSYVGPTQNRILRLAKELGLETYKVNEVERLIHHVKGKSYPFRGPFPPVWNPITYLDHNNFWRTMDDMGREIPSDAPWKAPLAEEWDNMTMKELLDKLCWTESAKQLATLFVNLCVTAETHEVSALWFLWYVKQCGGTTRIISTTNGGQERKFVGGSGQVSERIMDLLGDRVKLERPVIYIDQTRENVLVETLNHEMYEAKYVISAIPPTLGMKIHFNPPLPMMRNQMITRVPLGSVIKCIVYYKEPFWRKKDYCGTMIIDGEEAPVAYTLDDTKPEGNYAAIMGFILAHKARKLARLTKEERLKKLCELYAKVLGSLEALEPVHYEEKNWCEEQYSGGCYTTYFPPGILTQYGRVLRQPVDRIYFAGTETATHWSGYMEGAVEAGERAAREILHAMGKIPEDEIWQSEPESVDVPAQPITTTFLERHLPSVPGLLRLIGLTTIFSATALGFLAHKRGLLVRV

[1] = system: NIH/3T3 mouse embryonic fibroblast cell line; assay: Cytotoxicity test (MTT assay); type: cell-based; conditions: for IC50: Mus musculus, NIH3T3, MTT, read-out: IC50 against NIH/3T3 cells; for cytotoxicity (in words): at effective concentration against hMAO-A
Description: In cytotoxicity test by using NIH/3T3 mouse embryonic fibroblast cell line (ATCC® CRL-1658™, London, UK), firstly NIH/3T3 cells were incubated in the Dulbecco’s Modified Eagle’s Medium (DMEM, Sigma Aldrich, St. Louis, MO, USA). NIH/3T3 cells were plated on 96-well culture plates as 10,000 cells per well and were then treated with the compounds at concentrations ranging from 1000 µM to 0.316 µM (1000, 316, 100, 31.6, 10, 3.16, 1, 0.316 µM). MTT assay was performed as previously described. Dose-response curves were plotted against compound concentrations applied to determine IC50 values.

[2] = system: Salmonella typhimurium TA98; assay: Ames MPF genotoxicity test, TA98; type: cell-based; conditions: for mutagenicity classification against TA98: in the presence and absence of metabolic activation (S9)
Description: An Ames MPF assay was performed to investigate the genotoxicity of the compounds 2a and 2b.
The genotoxicity of the compounds was determined by Ames assay as previously described using the Ames MPF 98/100 mutagenicity test sample kit (Xenometrix AG, Allschwil, Switzerland). This test was performed with Salmonella typhimurium strains TA98 (frameshift mutations) and TA100 (base-pair substitutions). Compounds was prepared in six different concentrations (5, 2.5, 1.25, 0.625, 0.3125, 0.156 mg/mL) which was between […] and 5000 µg/mL according to the previous guidelines in DMSO. In order to detect mutagenic potential, test performed with and without Aroclor™-1254 induced male Sprague-Dawley rat liver microsomal enzyme (S9) mix (Xenometrix AG). While the positive control for TA 98 without S9 mix was 2-nitrofluorene (2 μg/mL), 1 μg/mL of 2-aminoanthracene was positive control with S9 against TA 98. For TA100, 4-nitroquinoline N-oxide (0.1 μg/mL) was positive control without S9 mix and 2.5 μg/mL of 2-aminoanthracene was positive control. 4% DMSO solution was the solvent control. At the end of the experiment, revertant bacteria decreased the pH of solution and indicator medium colour was changed to yellow. Yellow wells were counted as positive and compared with the negative control. Fold induction over the negative control and fold induction over the baseline were calculated. Fold induction over the negative control is the ratio of the mean number of positive wells for the dose concentration divided by the mean number of positive wells for the zero dose (negative) control. Fold induction over the baseline is the ratio of the mean number of positive wells for the dose concentration divided by zero dose baseline. The zero dose baseline is obtained by adding one standard deviation to the mean number of positive wells of the zero dose control. Mutagenity was determined according to the criteria from previous studies. For a baseline value ≤ 3, significant increases between 2 and 3-fold the baseline were classified as weak mutagen, increases ≥ 3-fold the baseline were classified as mutagen. For a baseline was > 3, significant increases between 1.5 and 2.5-fold the baseline were classified as weak mutagen, and increases ≥ 2.5-fold the baseline, were classified as mutagen. In principle, for a mutagenic compound, at least two adjacent doses with significant increase or a significant increase at the highest dose level should be observed. All doses were compared according to Student’s t-test at p < 0.05 as statistically.

Row | SMILES | inhibition at 1000 µM (hMAO-B) [%] | inhibition at 100 µM (hMAO-B) [%] | IC50 [1] [µM] | cytotoxicity (in words) [1] | Revertants Fold Increase (Over Baseline) ([2]; TA 98, S9+, 0.156 mg/mL) | Revertants Fold Increase (Over Baseline) ([2]; TA 98, S9+, 0.3125 mg/mL) | Revertants Fold Increase (Over Baseline) ([2]; TA 98, S9+, 0.625 mg/mL) | Revertants Fold Increase (Over Baseline) ([2]; TA 98, S9+, 1.25 mg/mL) | Revertants Fold Increase (Over Baseline) ([2]; TA 98, S9+, 2.5 mg/mL) | Revertants Fold Increase (Over Baseline) ([2]; TA 98, S9+, 5 mg/mL) | Revertants Fold Increase (Over Baseline) ([2]; TA 98, S9−, 0.156 mg/mL) | Revertants Fold Increase (Over Baseline) ([2]; TA 98, S9−, 0.3125 mg/mL) | Revertants Fold Increase (Over Baseline) ([2]; TA 98, S9−, 0.625 mg/mL) | Revertants Fold Increase (Over Baseline) ([2]; TA 98, S9−, 1.25 mg/mL) | Revertants Fold Increase (Over Baseline) ([2]; TA 98, S9−, 2.5 mg/mL) | Revertants Fold Increase (Over Baseline) ([2]; TA 98, S9−, 5 mg/mL) | mutagenicity classification against TA98 [2] | Fold-inductions over baseline ([2]; TA98 without S9, all concentrations)
1 | CC1CCCCN1c1ccc(/C=N/Nc2ccccc2)cc1 (stereo not drawn) [Compound 2a, 1-(4-(2-Methypiperidin-1-yl)benzylidene)-2-phenylhydrazine] | 35 ± 0.766 | 22.1 ± 0.443 | 930 ± 15.4 | non-cytotoxic; also recorded: not cytotoxic | 0.92 | 0.83 | 0.58 | 0.75 | 0.75 | 1.17 | 0.42 | 0.08 * | 0.58 | 0.50 | 0.08 * | 0.17 * | non-mutagenic | 
2 | CN1CCN(c2ccc(C=NNc3ccccc3)cc2)CC1 [Compound 2b, 1-(4-(4-Methylpiperazine-1-yl)benzylidene)-2-phenylhydrazine] | 63.7 ± 1.03 | 43 ± 1.2 | 20 ± 1.32 | non-cytotoxic; also recorded: not cytotoxic | 0.85 |  |  | 0.37 | 0.37 | 0.12 | 1.24 * | 0.36 | 0.22 | 0.00 | 0.00 | 0.00 | not classified as a mutagen | ≤ 1.5
